This is an account of results in paper PMC11353420, “Anti-Inflammatory, Cytotoxic, and Genotoxic Effects of Soybean Oligopeptides Conjugated with Mannose” (Foods, 2024).

Series [1] has as its system Drosophila melanogaster. As to the kind of experiment: Somatic mutation and recombination test (SMART, wing spot test). Particulars: 20 mM, positive control. On the set-up: key to Statistical diagnosis vs DI (negative control), Small Single (1–2 Cells) / Statistical diagnosis vs DI (negative control), Large Single (>2 Cells) / Statistical diagnosis vs DI (negative control), Twin / Statistical diagnosis vs DI (negative control), Total Spots: + = positive; − = negative; i = inconclusive. In kind it is in vivo. On the procedure:
In brief, two strains of fruit flies, including mwh/mwh and ORR; flr^3/In(3LR) TM3, ri p^p sep l(3)89Aa bx^34e e Bd^S, were mated. […] After hatching, forty round wings were collected and analyzed for mutant spots (single, large, and twin spots). The statistical analysis for the wing spot test was performed as previously described. The Drosophila study was approved by the Institute of Nutrition—Mahidol University Institutional Animal Care and Use Committee (INMU-IACUC) (COA. No. INMU-IACUC 2023/01).

Series [2] deals with IL-6. Put plainly: IL-6 secretion by ELISA in LPS-treated RAW 264.7. Format: cell-based, murine. Particulars: 100, 200, 400 µg/mL, LPS 1 µg/mL 24 h. Here is the method: (§1) RAW 264.7 macrophage cells were pretreated with various concentrations of the oligopeptide and its conjugated forms (100, 200, 400 µg/mL) for an hour and then incubated with LPS (1 µg/mL) for further 24 h at 37 °C in a 5% CO2 humidified atmosphere. Then, a sandwich Enzyme Link Immuno-Sorbent Assay was carried out in accordance with the manufacturer’s protocols (BioLegend ELISA MAXTM Deluxe Set, San Diego, CA, USA) to measure TNF-α or IL-6 protein levels in the condition medium.

Series [3] concerns HEK293 (Human embryonic kidney cell line). As to the kind of experiment: SRB cytotoxicity assay, HEK293. In kind it is cell-based. The text has this:
(§2) HEK293 (Human embryonic kidney cell line), HepG2 (Human liver carcinoma cell line), LX-2 (Human hepatic stellate cell line), and 3T3-L1 (Murine preadipocyte cell line) cells were obtained from the American Type Culture Collection (ATCC), Bethesda, MD, USA.
A general note: In SRB staining, fixed cells bind dye roughly in proportion to their protein.

Series [4] relates to RAW 264.7 murine macrophage cell line. Put plainly: SRB cytotoxicity assay, RAW 264.7. Here is the method:
The cells were maintained in a 5% CO2 humidified atmosphere (CO2 incubator, Thermo Scientific, Waltham, MA, USA) at 37 °C and sub-cultured every 3 days.
(§3) The cytotoxicity of the oligopeptide and its conjugated forms on HepG2, HEK293, LX-2, and RAW 264.7 cells, pre- and mature 3T3-L1 adipocytes, and hPBMCs was analyzed by a sulforhodamine (SRB) assay to obtain their non-toxic concentration for further experiments and as screening data for their in vitro safety. The cells were plated for 12 h in 96-well plates and then treated with the oligopeptide and its conjugated sugar at a concentration of 0–1000 µg/mL for 48 h. Dimethyl sulfoxide (DMSO) was used as a vehicle control (the untreated control). At the indicated time, the cells were then fixed and subjected to an SRB assay. The absorbance was measured at 510 nm by spectrophotometry (Gen5, BioTek, Winooski, VT, USA), and the cell viability was calculated as the ratio of the treatment versus untreated control. The data are represented as the mean ± standard deviation of three replicates and are expressed relative to the untreated control. The percentage of cell survival was calculated as follows:% cell survival = (Abs_extract/Abs_control) × 100

For series [5], the system named is 3T3-L1 Mature-adipocytes. Put plainly: SRB cytotoxicity assay, 3T3-L1 mature adipocytes. Format: cell-based, murine. On the procedure:
The pre-adipocyte 3T3-L1 cell line was differentiated to become mature adipocytes by culturing the cells to 100% confluence in 10% calf serum DMEM (CS medium), as Day 0 in a 96 well-plate. After post-confluence, the cells were incubated with the induction medium as a differentiation initiation medium (DMEM […] 1 μM DEX, 0.5 mM IBMX, 167 nM insulin, and 10% FBS) for 3 days (Days 1–3). After that, cells were cultured in a differentiation medium as an adipogenic differentiation medium (differentiation media: DMEM containing 167 nM insulin and 10% FBS) for 3 days (Days 4–6). Finally, maturation was induced in an induced-lipid accumulation medium (maturation media: DMEM containing 167 nM insulin and 10% FBS) for 6 days (Days 7–12). The mature adipocytes were then used for toxicity testing.
as §3

In series [6] the test system is TNF-α. As to the kind of experiment: TNF-α secretion by ELISA in LPS-treated RAW 264.7. Format: cell-based, murine. The following applies: 400 µg/mL, LPS-stimulated cells. On the procedure:
as §1
For orientation: In an ELISA, binding on a coated surface is turned into a signal by an enzyme label.

Series [7] has as its system COX-2. Put plainly: COX-2 protein level by immunoblotting in LPS-treated RAW 264.7. In kind it is cell-based, murine. The following applies: 100, 200, 400 µg/mL, LPS 1 µg/mL 24 h. Here is the method: (§4) RAW 264.7 macrophage cells were pretreated with various concentrations of the oligopeptide and its conjugated forms (100, 200, 400 µg/mL) for an hour and then incubated with LPS (1 µg/mL) for a further 24 h (at 37 °C in a 5% CO2 humidified atmosphere). The cells were then collected to investigate the iNOS and COX-2 protein levels. Cell lysate was prepared to obtain the protein samples. The samples were subjected to 10% sodium dodecyl sulfate polyacrylamide gel electrophoresis (SDS-PAGE). The separated proteins were electrically transferred to a nitrocellulose membrane. The target proteins were probed with specific antibodies, including anti-COX-2 antibody (Cell signaling, Danvers, MA, USA), anti-iNOS antibody (Merck, Rahway, NJ, USA), and anti-β-actin antibody (Sigma, St. Louis, MO, USA). Protein detection was performed using a chemiluminescence reagent (Bio-Rad Laboratories, Watford, UK).
A general note: A western blot detects proteins with antibodies after separation by electrophoresis.

Series [8] deals with iNOS. Put plainly: iNOS protein level by immunoblotting in LPS-treated RAW 264.7. In kind it is cell-based, murine. The following applies: 100, 200, 400 µg/mL, LPS 1 µg/mL 24 h. Here is the method:
as §4

The test system of series [9] is HepG2 (Human liver carcinoma cell line). As to the kind of experiment: SRB cytotoxicity assay, HepG2. Format: cell-based.
Text: as §2

In series [10] the test system is 3T3-L1 Pre-adipocyte. Put plainly: SRB cytotoxicity assay, 3T3-L1 pre-adipocyte. In kind it is cell-based, murine.
Text: as §2

Series [11] deals with NO production in LPS-treated RAW 264.7 macrophages. Put plainly: LPS-induced nitric oxide (NO)/nitrite production, Griess reaction. In kind it is cell-based, murine. Particulars: 100, 200, 400 µg/mL pretreatment 1 h, LPS 1 µg/mL 24 h. On the procedure: To screen the anti-inflammation ability of the compounds, the nitrite level in the cultured medium of the treated cells was determined by the Griess reaction. RAW 264.7 macrophage cells were pretreated with various concentrations of the oligopeptide and its conjugated forms (100, 200, 400 µg/mL) for an hour and then incubated with LPS (1 µg/mL) for further 24 h at 37 °C in a 5% CO2 humidified atmosphere. The culture supernatant was collected for the Griess reagent assay as previous described. The NO production was calculated by comparison with LPS-treated controls.

For series [12], the system named is LX-2 (Human hepatic stellate cell line). As to the kind of experiment: SRB cytotoxicity assay, LX-2. In kind it is cell-based.
Text: as §2

Series [13] concerns Salmonella typhimurium strain TA98. Put plainly: Salmonella mutation assay (Ames test), TA98. Format: cell-based. The following applies: positive mutagen. Here is the method:
(§5) Overnight bacterial cultures were mixed with various doses of test compounds with (+S9) or without (−S9) and incubated at 37 °C for 20 min. The top agar was added and then poured onto a plate of minimal glucose agar. The plates were incubated at 37 °C for 48 h. The number of revertant colonies was counted and the mutagenic index (MI) was calculated. 2-aminoanthracene (2-AA) and 2-(2-furyl)-3-(5-nitro-2-furyl)-acrylamide (AF-2) were used as positive mutagens in the presence and absence of S9.

Series [14] deals with Salmonella typhimurium strain TA100. As to the kind of experiment: Salmonella mutation assay (Ames test), TA100. In kind it is cell-based. The following applies: positive mutagen. Here is the method:
as §5

Series [15] deals with human red blood cells (RBCs). Put plainly: Hemolysis assay. Format: cell-based. The following applies: 0.05%, positive control. The source says: As described by Karinchai et al., human peripheral blood mononuclear cells (PBMCs) and red blood cells (RBCs) were isolated from human blood samples [41]. Human blood samples of healthy subjects obtained from Maharaj Hospital, Chiang Mai, Thailand, were anonymized and kept in a heparinized tube by the laboratory. RBCs were collected and used to determined hemolysis induction by a hemolysis assay. Ficoll-Hypaque solution was used to isolate PBMCs, as described in the manufacturer’s instructions. A certificate of exemption by the Research Ethics Committee of the Faculty of Medicine, Chiang Mai University (No. EXEMPTION 8989/2022), was granted. Consent to participate was not applicable as all data were anonymized. All methods were carried out in accordance with relevant guidelines and regulations.
The hemolytic effect of the oligopeptide and its conjugated forms was determined by hemolysis assay. Briefly, the 5% RBCs suspension was mixed with various concentrations of the samples and further incubated at 37 °C for 3 h. The hemolysis induction by the compounds was measured as described previously. The hemolytic effect of each compound was interpreted using the following guidelines: 0–10% hemolysis is non-hemolysis, 10–25% hemolysis is slight hemolysis induction, and >25% hemolysis is high hemolysis induction.

“And” between values parts separate entries of the source, which are not always exact repeats. Equal values may be shown once. Where only a bound is given, the exact number is not on record here.

In the case of `CCOC(N)=O` [urethane], in [1], the “Statistical diagnosis vs DI (negative control), Large Single (>2 Cells)” value is listed as “+”; the “Statistical diagnosis vs DI (negative control), Small Single (1–2 Cells)” value is on record as “+”; the “Statistical diagnosis vs DI (negative control), Total Spots” value was “+”; the “Statistical diagnosis vs DI (negative control), Twin” value is “+”. Further, the “total mutant spot, fold greater than the negative control” value in [1] is reported as 15 fold. Moreover, in series [1] (40 wings), the “Frequency of Mutant Spots per Individual (Number of Spots), Large Single (>2 Cells)” value is listed as 3.40 (136); the “Frequency of Mutant Spots per Individual (Number of Spots), Small Single (1–2 Cells)” value is listed as 6.10 (244); the “Frequency of Mutant Spots per Individual (Number of Spots), Total Spots” value is 10.18 and 10.18 (407); the “Frequency of Mutant Spots per Individual (Number of Spots), Twin” value is reported as 0.68 (27).
As a reminder, the IC20 is the concentration at which the effect reaches the 20% level. By IC50 is commonly meant the point on the concentration scale where inhibition reaches its midpoint. Regarding `O=C(CO)[C@H](O)[C@H](O)[C@H](O)CO` [AL, D-allulose], the “effect on level of IL-6” value in series [2] was “did not alter”. Besides, the 20% effect concentration (IC20) in [3], in series [4], in series [5], in series [9], in [10] and in [12] was above 1000 µg/mL each time. Also, the IC50 in [3] (HEK293, 48 h, SRB) is recorded as above 1000 µg/mL; in series [4] (RAW 264.7, 48 h, SRB), above 1000 µg/mL; in series [5] (3T3-L1 Mature-adipocytes, 48 h, SRB), above 1000 µg/mL; in series [9] (HepG2, 48 h, SRB), above 1000 µg/mL; in series [10] (3T3-L1 Pre-adipocyte, 48 h, SRB), above 1000 µg/mL; in series [12] (LX-2, 48 h, SRB), above 1000 µg/mL. Moreover, the “effect on TNF-α level” value in series [6] was “significantly decreased”. In addition, the “effect on COX-2 protein level” value in series [7] was “did not affect”. Also, the “effect on iNOS protein level” value in series [8] is “did not affect”. Also, the “inhibition of LPS-induced NO production” value in [11] was “did not inhibit”.
Regarding `NC(=O)C(=Cc1ccc([N+](=O)[O-])o1)c1ccco1` [AF-2, 2-(2-furyl)-3-(5-nitro-2-furyl)-acrylamide], the “His^+ Revertant Colonies per Plate” value was 293.0 ± 10.3 in series [13] (TA98, −S9, 0.1 µg per plate) and 527.3 ± 15.0 in series [14] (TA100, −S9, 0.01 µg per plate).
For `Nc1ccc2cc3ccccc3cc2c1` [2-AA, 2-aminoanthracene], the “His^+ Revertant Colonies per Plate” value was 325.8 ± 16.2 in [13] (TA98, +S9, 0.5 µg per plate) and 599.7 ± 8.7 in series [14] (TA100, +S9, 0.5 µg per plate).
On to triton x-100, for which the “% Hemolysis (n = 5)” value in [15] is recorded as 100 ± 0.00%.
